From ChEMBL document CHEMBL1123114, “Structure-activity relationships of arylimidazopyridine cardiotonics: discovery and inotropic activity of 2-[2-methoxy-4-(methylsulfinyl)phenyl]-1H-imidazo[4,5-c]pyridine” (1985) come the findings set out here.

Molecules are shown by their SMILES.

For test [1], the species on record is Felis catus. In words: Response ratio = (percent increase to drug)/(percent increase to 10 E-6 M isoproterenol). Format: functional.
For test [2], the species on record is Felis catus. In words: Compound tested for contractility in isolated cat papillary muscle at 10 e-4 M. It counts as functional.
The species named for test [3] is Felis catus. In words: Compound tested for contractility in isolated cat papillary muscle at 10 e-5 M. It counts as functional.
For test [4], the species on record is Felis catus. In words: Response ratio = (percent increase to drug)/(percent increase to 10 E-5 M isoproterenol). It counts as functional.
Test [5] is filed under the species Felis catus. In words: Response ratio = (percent increase to drug)/(percent increase to 10 E-4 M isoproterenol). It counts as functional.
For test [6], the system named is Canis familiaris. In words: Percent change in heart rate in anesthetized dog. It counts as functional, Canis lupus familiaris.
The subject of test [7] is Canis familiaris. In words: Compound tested for contractility in anesthetized dog when administered intravenously. Format: functional. The note with it: Canis lupus familiaris, iv.
Test [8] has as its system Canis familiaris. In words: Percent change in mean arterial blood pressure in anesthetized dog. Format: functional, Canis lupus familiaris.

`CCCCOc1ccc(-c2nc3cc[nH]cc-3n2)cc1`: the figures for the Response ratio in the test listed under Felis catus [1], in the test filed under Felis catus [4] and in the test listed under Felis catus [5] were 0.19, 0.19 and 2.61, respectively. Besides, the Control in the test filed under Felis catus [2] was determined as 288%; in the test filed under Felis catus [3], 114%.

Regarding `CS(=O)(=O)c1ccc(-c2nc3cc[nH]cc-3n2)cc1`, the figures for the Change with Canis familiaris [6] and in the test with Canis familiaris [8] were 10% and 2%, respectively. For the same compound, the Control was found to be 137% in the test filed under Felis catus [2] and 117% in the test listed under Felis catus [3]. Further, the Response ratio came out at 0.24 in the test filed under Felis catus [4] and 0.51 in the test listed under Felis catus [5]. In addition, in the test on Canis familiaris [7], the ED50 – broadly, the dose at which the effect has come halfway, by size or by number of responders – came to 7.5 mg/kg.

In the case of `CCSCCOc1cc(OC)ccc1-c1nc2cc[nH]cc-2n1`, the Change in the test on Canis familiaris [6] is reported as 20%; in the test on Canis familiaris [8] it was -21%. Besides, the Control in the test filed under Felis catus [2] was determined as 134%; in the test listed under Felis catus [3], 128%. Further, the values for the Response ratio in the test filed under Felis catus [4] and in the test listed under Felis catus [5] were 0.39 and 0.47, respectively. This compound displayed an ED50 in the test with Canis familiaris [7] of 1 mg/kg.

As to `COc1ccc(-c2nc3cc[nH]cc-3n2)c(OCCSC)c1`, the Change in the test on Canis familiaris [6] was 4%; in the test on Canis familiaris [8], -21%. The Control in the test filed under Felis catus [2] amounted to 140%; in the test filed under Felis catus [3] it was 122%. In addition, the Response ratio in the test listed under Felis catus [4] came out at 0.3; in the test filed under Felis catus [5], 0.55. Also, the 50% effect level in the test with Canis familiaris [7] (ED50) was put at a dose of 1.1 mg/kg.

`COc1cc([S+](C)[O-])ccc1-c1nc2c[nH]cnc-2n1` (stereo not given): the Change in the test with Canis familiaris [6] was 8%; in the test with Canis familiaris [8], 14%. Besides, the values for the Control in the test listed under Felis catus [2] and in the test filed under Felis catus [3] were 142% and 115%, respectively. Further, the Response ratio is listed as 0.21 in the test filed under Felis catus [4] and 0.58 in the test filed under Felis catus [5]. In addition, the ED50 in the test on Canis familiaris [7] is 0.6 mg/kg.

Turning to `COc1ccc(-c2nc3cc[nH]cc-3n2)cc1OC`, the Change in the test on Canis familiaris [6] is given as 15%; with Canis familiaris [8] it was -9%. In addition, the Control in the test filed under Felis catus [2] worked out at 252%; in the test listed under Felis catus [3], 164%. Moreover, the Response ratio in the test filed under Felis catus [4] amounted to 0.89; in the test listed under Felis catus [5], 2.11. Besides, in the test on Canis familiaris [7], the ED50 came out at 0.4 mg/kg.

On to `COc1cc(OS(C)(=O)=O)ccc1-c1nc2cc[nH]cc-2n1`, for which the Change with Canis familiaris [6] is 17%; in the test on Canis familiaris [8], -25%. Also, the Control in the test listed under Felis catus [2] is 326%; in the test filed under Felis catus [3], 240%. Also, the Response ratio turned out to be 1.94 in the test listed under Felis catus [4] and 3.13 in the test filed under Felis catus [5]. Further, the median effective dose (ED50) in the test on Canis familiaris [7] came to 0.006 mg/kg.

Turning to `COc1cc(S(C)(=O)=O)ccc1-c1nc2ccncc2[nH]1`, the Change in the test on Canis familiaris [6] is given as 8%; in the test with Canis familiaris [8], -5%. Further, the Control in the test filed under Felis catus [2] is given as 221%; in the test listed under Felis catus [3], 176%. In addition, the Response ratio in the test listed under Felis catus [4] is listed as 1.05; in the test listed under Felis catus [5], 1.68. Also, it took a dose of 0.02 mg/kg to reach the 50% effect level in the test with Canis familiaris [7] (ED50).

With `c1ccc(-c2nc3cc[nH]cc-3n2)cc1`, the Change in the test on Canis familiaris [6] is recorded as 13%; with Canis familiaris [8], -15%. For the same compound, the Control in the test filed under Felis catus [2] is given as 242%; in the test listed under Felis catus [3], 106%. Moreover, the Response ratio is 0.08 in the test listed under Felis catus [4] and 1.97 in the test listed under Felis catus [5]. Also, the 50% effect level with Canis familiaris [7] (ED50) was put at a dose of 2.5 mg/kg.

Turning to `CCOc1cc(S(C)(=O)=O)ccc1-c1nc2cc[nH]cc-2n1`, the Change in the test with Canis familiaris [6] is given as 7%; in the test on Canis familiaris [8], -11%. In addition, the Control in the test listed under Felis catus [2] was 198%; in the test filed under Felis catus [3], 137%. Also, the Response ratio turned out to be 0.51 in the test listed under Felis catus [4] and 1.36 in the test listed under Felis catus [5]. Further, it took a dose of 0.07 mg/kg to reach the 50% effect level in the test with Canis familiaris [7] (ED50).

For `Clc1ccc(-c2nc3cc[nH]cc-3n2)c(Cl)c1`, the values for the Change in the test on Canis familiaris [6] and with Canis familiaris [8] were 17% and -22%, respectively. For the same compound, the values for the Control in the test listed under Felis catus [2] and in the test listed under Felis catus [3] were 171% and 116%, respectively. In addition, the Response ratio was 0.22 in the test listed under Felis catus [4] and 0.99 in the test filed under Felis catus [5]. In the test with Canis familiaris [7], this compound yielded an ED50 of 0.7 mg/kg.
